Results on four compounds are retold here after US20210214681A1, “STEM CELL-DERIVED HUMAN MICROGLIAL CELLS, METHODS OF MAKING AND METHODS OF USE” (MEMORIAL SLOAN-KETTERING CANCER CENTER, priority 2018, published 2021).

pIC50: −log10 of the molar value.

One data set has as its system hPSCs. Nature of the data set: hPSC differentiation to mesoderm and KDR+CD235a+ primitive hematopoietic precursors. Type of data set: cell-based, human. From the text: Inhibition of Wnt signaling biases early mesoderm cells from the posterior primitive streak to generate KDR+CD235a+ primitive hematopoietic precursors (Sturgeon et al., Nat. Biotechnol. (2014); 32, 554-561). These precursors will go on to initiate primitive hematopoiesis in the yolk sac, giving rise to early EMPs. In this microglial differentiation scheme, the present example adapted Wnt inhibition to induce primitive hematopoiesis from hPSCs in a monolayer strategy. […] These cells were also KDR+ and CD235a+ (primitive hematopoietic precursors) by day 4 of differentiation by flow cytometry. […] Next, the present example developed the timeline of hemogenic endothelium and hematopoietic cell. Hemogenic endothelium developed after 1 day of replating the sorted KDR^+CD235A^+ primitive hematopoietic precursors. These cells gave rise to hematopoietic cells in suspension over 7 days in culture, gradually becoming more numerous in culture (FIG. 2). In order to validate hemogenic endothelium by VE-cadherin+staining, at 1 day post-sort, the cells were positive for VE-cadherin by immunofluorescence confirming that they were hemogenic endothelium, and the cells in suspension had characteristic small nuclei of hematopoietic cells (FIG. 3). […]

The test system of another data set is rodent GSK3β homologs. As to conditions: cited from earlier work.
The subject of another data set is WNT pathway. Conditions: at the level of the pathway activator Porcupine; read-out: IC50 WNT pathway inhibition; cited from earlier work.
The subject of the next data set is SW480 cells. Conditions: cited from earlier work.
For a further data set, the system named is pMacs. Nature of the data set: Serum-free maturation of pMacs into macrophages. Type of data set: cell-based, human. Conditions: pMacs in IMDM/F12/N2/B27 without serum. From the text:
In the second strategy to generate microglia, the EMPs were matured into macrophages with 10% serum and M-CSF and IL-34. They developed the mature macrophage marker Cd11b by day 4 in culture, and the mature spindle morphology by day 11 (FIG. 10). All the cells that persisted in culture in serum and M-CSF and IL-34 after 11 days were CD45^+, indicating they were all hematopoietic. The majority also were positive for mature macrophage markers such as CX3CR1, CD14, Cd11b, and dectin by flow cytometry analysis (FIG. 11). The pMacs can also be matured into macrophages without serum, using IMDM/F12/N2/B27 in place of serum along with M-CSF and IL-34 (FIG. 12). […] Macrophage cells co-cultured with neurons yielded microglial cells with branching morphology and increased Iba1 immunofluorescence staining (FIG. 13). Iba1 was increased in microglial cells from macrophages, so the cells had transitioned into microglial identity through co-culture with neurons. Co-cultured pMac-derived microglia (EMP co-culture) and pMac-macrophage derived microglia (EMP-macrophage co-culture) share expression of key microglial genes with human fetal microglia (FIG. 14). Quantitative PCR of RNA from the two different strategies to derive microglia shared gene expression of a panel of key microglial genes with RNA from human fetal microglia (commercial source).

Data set [1] concerns complement C3 release from hPSC-derived microglia cultures. Nature of the data set: C3 release in Alzheimer's and H9 control co-cultures (ELISA). Conditions: all cultures, both Alzheimer's and control. Format: cell-based, human. How it is done:
(§1) hPSC-derived microglia were used to model two neurodegenerative diseases, Alzheimer's and Amyotrophic Lateral Sclerosis (ALS). Mixed cultures of hPSC-derived microglia and Alzheimer's iPSC-derived neurons allowed to observe microglial activation in the disease culture, particularly with respect to increased complement C3 release. […] C3 was measured via ELISA. Additionally, GM-C SF diminished the C3 release in all cultures, both Alzheimer's and control (FIG. 20). […] Amyloid-β burden was decreased in microglial co-cultures with selectivity for amyloid-42 peptide (FIG. 21). […] Increased fluorescence of 42-488 inside microglial cells indicated increased uptake (FIG. 22). […] Switching fluorophores yielded similar result: amyloid-beta 42 was taken up more by microglial cells (FIG. 23). The fluorophores representing amyloid 42 and 40 were switched to make sure the effect of increased 42 brightness within cells was not due to a technical fluorophore brightness effect. Even with the switched fluorophores, in this experiment 42 was tagged to 555 and 40 to 488, there was more 42 brightness within microglial cells via immunofluorescence, corroborating the previous results that microglial cells phagocytosed amyloid-beta 42 selectively.
Culture supernatants were analyzed for C3 using the Millipore Luminex Multiplex Kit on the FlexMap 3D system. […]
Background: An ELISA detects its analyte on a solid surface through an enzyme-linked reagent.

The test system of data set [2] is hPSC-derived microglial cells. Nature of the data set: Amyloid-beta phagocytosis by hPSC-derived microglial cells (FACS). Type of data set: cell-based, human. As to conditions: flow cytometry. The protocol:
as §1
(In general: A flow cytometer gives signals particle by particle.)

For `Cc1c[nH]c(-c2cnc(NCCNc3ccc(C#N)cn3)nc2-c2ccc(Cl)cc2Cl)n1` [CHIR99021, 6-(2-(4-(2,4-dichlorophenyl)-5-(4-methyl-1H-imidazol-2-yl)pyrimidin-2-ylamino)ethylamino)nicotinonitrile], the “percentage of primitive hematopoietic precursors (KDR+CD235a+)” value with hPSCs (18 hr at 3 uM followed by Wnt inhibition via IWP2 at 3 uM, flow cytometry) is on record as “highest percentage”. Also, the “early mesoderm marked by Brachyury (T)” value in the data set with hPSCs (eighteen hours of Wnt activation, immunofluorescence) was “gave rise to early mesoderm”. Besides, the “IC50 values against rodent GSK3β homologs” value in the data set on rodent GSK3β homologs is given as “nanomolar”.
One may read the pIC50 as the negative decadic logarithm of the IC50, by convention in mol/L. On to `Cc1ccc2nc(NC(=O)CSc3nc4c(c(=O)n3-c3ccccc3)SCC4)sc2c1` [IWP-2, N-(6-methyl-1,3-benzothiazol-2-yl)-2-[(4-oxo-3-phenyl-6,7-dihydrothieno[3,2-d]pyrimidin-2-yl)thio]acetamide], for which the pIC50 in the data set with WNT pathway is 7.57.
On to `Oc1nc(-c2ccc(C(F)(F)F)cc2)nc2c1CSCC2` [XAV939], for which, in the data set on SW480 cells, the “degradation of β-catenin” value was “promotes the degradation of β-catenin” and the “protein levels of the axin-GSK3β complex” value is on record as “increases”.
Turning to “GM-CSF: granulocyte-macrophage colony-stimulating factor”, the “cell yield / cell division and appearance” value in the data set on pMacs was “allowed division of the cells as well but the resulting cells appeared more granular and activated”. The C3 release result in data set [1] is “diminished”. In addition, in data set [2], the “phagocytosis of amyloid-beta 40” value is listed as “increased” and the “phagocytosis of amyloid-beta 42” value is recorded as “increased”.
